Test results taken from US20090232838A1, “Ligands of melanocortin receptors” (priority 2005, published 2009).

Assays:
Assay type in all cases: cell-based
hMC1-R = target: T1, hMC1-R (Homo sapiens, UniProt Q01726); test: cyclic AMP bioassay, hMC1-R
T1 construct: expressed in transfected cells; host or cells: CHO-K1

hMC3-R = target: T2, hMC3-R (Homo sapiens, UniProt P41968); test: cyclic AMP bioassay, hMC3-R
T2 construct: expressed in transfected cells; host or cells: CHO-K1
Method: Intracellular cyclic AMP (cAMP) levels were determined by an electrochemiluminescence (ECL) assay (Meso Scale Discovery®, Gaithersburg, Md.; referred to hereinafter as MSD). […] Transgenic CHO-K1 cells stably expressing hMC receptor subtypes 1, 3, 4 or 5 were dispensed at a density of approximately 7,000 cells/well in 384-well Multi-Arrays plates (MSD) containing integrated carbon electrodes and coated with anti-CAMP antibody. Increasing concentrations of the test compounds were added and the cells were incubated for approximately 40 minutes at approximately 37° C. […] At the end of the second incubation period read buffer (Tris-buffered solution containing an ECL co-reactant and Triton X-100 at ph 7.8) was added and the cAMP levels in the cell lysates were immediately determined by ECL detection with a Sector Imager 6000 Reader® (MSD). Data were analyzed using a computer-assisted non-linear regression analysis (XL fit; IDBS) and reported as either an EC50 value or a Kb value.
The Kb value reflects the potency of an antagonist and is determined by Schild analysis. In brief, concentration-response curves of an agonist are carried out in the presence of increasing concentrations of an antagonist. […] It is calculated by extrapolating the line on a Schild plot to zero on the y-axis.

hMC4-R = target: T3, hMC4-R (Homo sapiens, UniProt P32245); test: cyclic AMP bioassay, hMC4-R
T3 construct: expressed in transfected cells; host or cells: CHO-K1

hMC5-R = target: T4, hMC5-R (Homo sapiens, UniProt P33032); test: cyclic AMP bioassay, hMC5-R
T4 construct: expressed in transfected cells; host or cells: CHO-K1
T4 sequence (P33032 whole entry): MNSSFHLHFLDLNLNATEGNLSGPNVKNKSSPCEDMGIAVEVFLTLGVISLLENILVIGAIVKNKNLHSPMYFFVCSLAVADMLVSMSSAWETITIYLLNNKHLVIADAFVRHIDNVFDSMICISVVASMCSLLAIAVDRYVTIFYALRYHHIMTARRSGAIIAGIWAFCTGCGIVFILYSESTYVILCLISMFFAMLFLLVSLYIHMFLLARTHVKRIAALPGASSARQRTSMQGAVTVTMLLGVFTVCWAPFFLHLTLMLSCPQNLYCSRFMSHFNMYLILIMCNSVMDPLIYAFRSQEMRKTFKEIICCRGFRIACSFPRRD

T2 sequence (P41968 whole entry): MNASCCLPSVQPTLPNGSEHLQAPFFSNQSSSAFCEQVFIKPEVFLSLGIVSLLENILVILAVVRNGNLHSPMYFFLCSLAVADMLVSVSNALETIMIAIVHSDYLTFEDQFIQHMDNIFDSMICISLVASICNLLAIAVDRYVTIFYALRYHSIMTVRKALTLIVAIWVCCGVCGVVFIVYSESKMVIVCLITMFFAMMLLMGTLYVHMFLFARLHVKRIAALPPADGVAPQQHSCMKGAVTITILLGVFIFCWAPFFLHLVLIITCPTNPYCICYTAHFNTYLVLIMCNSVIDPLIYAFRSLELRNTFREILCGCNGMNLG
T1 sequence (Q01726 whole entry): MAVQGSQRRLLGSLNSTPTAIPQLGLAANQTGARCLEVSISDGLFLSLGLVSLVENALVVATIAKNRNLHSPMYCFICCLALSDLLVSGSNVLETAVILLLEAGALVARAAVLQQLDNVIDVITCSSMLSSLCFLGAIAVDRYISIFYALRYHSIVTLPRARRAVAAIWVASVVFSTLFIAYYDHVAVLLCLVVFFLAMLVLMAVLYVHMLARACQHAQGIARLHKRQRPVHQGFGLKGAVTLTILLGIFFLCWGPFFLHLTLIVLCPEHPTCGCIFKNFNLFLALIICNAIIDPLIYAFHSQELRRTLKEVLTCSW
T3 sequence (P32245 whole entry): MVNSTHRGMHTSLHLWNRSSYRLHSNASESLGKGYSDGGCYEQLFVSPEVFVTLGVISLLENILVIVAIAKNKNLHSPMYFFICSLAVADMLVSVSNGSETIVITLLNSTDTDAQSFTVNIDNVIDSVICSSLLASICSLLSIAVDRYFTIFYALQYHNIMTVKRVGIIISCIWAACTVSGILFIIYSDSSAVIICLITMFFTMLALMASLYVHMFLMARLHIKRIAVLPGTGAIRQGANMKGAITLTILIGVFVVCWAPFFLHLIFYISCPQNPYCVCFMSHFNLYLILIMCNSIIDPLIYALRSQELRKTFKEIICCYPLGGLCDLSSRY

`CCCC[C@H](NC(C)=O)C(=O)N[C@H]1CSSC[C@@H](C(=O)NCCC(=O)NCC(=O)N[C@@H](CCCNC(=N)N)C(=O)N[C@@H](CCCNC(=N)N)C(=O)N[C@@H](CCCNC(=N)N)C(=O)N[C@@H](CCCNC(=N)N)C(=O)N[C@@H](CCCNC(=N)N)C(=O)N[C@@H](CCC(N)=O)C(=O)N[C@@H](CCCNC(=N)N)C(=O)N[C@@H](CCCNC(=N)N)C(=O)N[C@@H](CCCNC(=N)N)C(N)=O)NC(=O)[C@H](Cc2c[nH]c3ccccc23)NC(=O)[C@H](CCCNC(=N)N)NC(=O)[C@@H](Cc2ccccc2)NC(=O)[C@H](Cc2c[nH]cn2)NC(=O)[C@@H](C)NC1=O` was tested, and the EC50 (hMC1-R) was 0.481 nM, the EC50 (hMC3-R) was 7.32 nM and the EC50 (hMC4-R) was 0.964 nM. It also gave an EC50 (hMC5-R) of 2010 nM.
For `CCCC[C@H](NC(C)=O)C(=O)N[C@H]1CSSC[C@@H](C(=O)NCCC(=O)N[C@@H](CCCNC(=N)N)C(=O)N[C@@H](CCCNC(=N)N)C(=O)N[C@@H](CCCNC(=N)N)C(=O)N[C@@H](CCCNC(=N)N)C(=O)N[C@@H](CCCNC(=N)N)C(=O)N[C@@H](CCC(N)=O)C(=O)N[C@@H](CCCNC(=N)N)C(=O)N[C@@H](CCCNC(=N)N)C(=O)N[C@@H](CCCNC(=N)N)C(N)=O)NC(=O)[C@H](Cc2c[nH]c3ccccc23)NC(=O)[C@H](CCCNC(=N)N)NC(=O)[C@@H](Cc2ccccc2)NC(=O)[C@H](Cc2c[nH]cn2)NC(=O)[C@@H](C)NC1=O`, the EC50 (hMC1-R) was 7.15 nM, the EC50 (hMC3-R) was 9.37 nM and the EC50 (hMC4-R) was 1.25 nM. It also gave an EC50 (hMC5-R) of 1570 nM.
With `CC(=O)N[C@H]1CSSC[C@@H](C(=O)N2CCC[C@H]2C(=O)N2CCC[C@H]2C(=O)N[C@@H](CCCCN)C(=O)N[C@@H](CC(=O)O)C(=O)NCCC(=O)N[C@@H](Cc2ccc(O)cc2)C(=O)NCC(=O)N[C@@H](CCCNC(=N)N)C(=O)N[C@@H](CCCCN)C(=O)N[C@@H](CCCCN)C(=O)N[C@@H](CCCNC(=N)N)C(=O)N[C@@H](CCCNC(=N)N)C(=O)N[C@@H](CCC(N)=O)C(=O)N[C@@H](CCCNC(=N)N)C(=O)N[C@@H](CCCNC(=N)N)C(=O)N[C@@H](CCCNC(=N)N)C(N)=O)NC(=O)[C@H](C)NC(=O)[C@H](Cc2cccc3ccccc23)NC(=O)[C@H](CCCNC(=N)N)NC(=O)[C@@H](Cc2ccc3ccccc3c2)NC(=O)[C@H](Cc2c[nH]cn2)NC(=O)[C@H](CCC(=O)O)NC1=O` the EC50 (hMC1-R) was 43.3 nM, the Kb (hMC3-R) was 215 nM and the Kb (hMC4-R) was 5.87 nM. It also gave an EC50 (hMC5-R) of 1290 nM.
Molecule `CC(=O)N[C@H]1CSSC[C@@H](C(=O)N2CCC[C@H]2C(=O)N2CCC[C@H]2C(=O)N[C@@H](CCCCN)C(=O)N[C@@H](CC(=O)O)C(=O)NCCC(=O)N[C@@H](CCCNC(=N)N)C(=O)N[C@@H](CCCCN)C(=O)N[C@@H](CCCNC(=N)N)C(=O)N[C@@H](CCCNC(=N)N)C(=O)N[C@@H](CCCNC(=N)N)C(=O)N[C@@H](CCC(N)=O)C(=O)N[C@@H](CCCNC(=N)N)C(=O)N[C@@H](CCCNC(=N)N)C(=O)N[C@@H](CCCNC(=N)N)C(N)=O)NC(=O)[C@H](C)NC(=O)[C@H](Cc2cccc3ccccc23)NC(=O)[C@H](CCCNC(=N)N)NC(=O)[C@@H](Cc2ccc3ccccc3c2)NC(=O)[C@H](Cc2c[nH]cn2)NC(=O)[C@H](CCC(=O)O)NC1=O` has an EC50 (hMC1-R) of 33.1 nM, a Kb (hMC3-R) of 65.1 nM and a Kb (hMC4-R) of 15.3 nM. The EC50 (hMC5-R) was 1720 nM.
`CC(=O)N[C@H]1CSSC[C@@H](C(=O)N2CCC[C@H]2C(=O)N2CCC[C@H]2C(=O)N[C@@H](CCCCN)C(=O)N[C@@H](CC(=O)O)C(=O)NCCC(=O)N[C@@H](CCCNC(=N)N)C(=O)N[C@@H](CCCNC(=N)N)C(=O)N[C@@H](CCCNC(=N)N)C(=O)N[C@@H](CCCNC(=N)N)C(=O)N[C@@H](CCCNC(=N)N)C(=O)N[C@@H](CCCNC(=N)N)C(=O)N[C@@H](CCC(N)=O)C(=O)N[C@@H](CCCNC(=N)N)C(=O)N[C@@H](CCCNC(=N)N)C(=O)N[C@@H](CCCNC(=N)N)C(N)=O)NC(=O)[C@H](C)NC(=O)[C@H](Cc2cccc3ccccc23)NC(=O)[C@H](CCCNC(=N)N)NC(=O)[C@@H](Cc2ccc3ccccc3c2)NC(=O)[C@H](Cc2c[nH]cn2)NC(=O)[C@H](CCC(=O)O)NC1=O` was tested, and the EC50 (hMC1-R) was 93 nM, the Kb (hMC3-R) was 71 nM and the Kb (hMC4-R) was 15.9 nM. The EC50 (hMC5-R) was > 10000 nM.
`CC(=O)N[C@H]1CSSC[C@@H](C(=O)N2CCC[C@H]2C(=O)N2CCC[C@H]2C(=O)N[C@@H](CCCCN)C(=O)N[C@@H](CC(=O)O)C(=O)NCCC(=O)N[C@@H](CCCNC(=N)N)C(=O)N[C@@H](CCCNC(=N)N)C(=O)N[C@@H](CCCCN)C(=O)N[C@@H](CCCNC(=N)N)C(=O)N[C@@H](CCCNC(=N)N)C(=O)N[C@@H](CCC(N)=O)C(=O)N[C@@H](CCCNC(=N)N)C(=O)N[C@@H](CCCNC(=N)N)C(=O)N[C@@H](CCCNC(=N)N)C(N)=O)NC(=O)[C@H](C)NC(=O)[C@H](Cc2cccc3ccccc23)NC(=O)[C@H](CCCNC(=N)N)NC(=O)[C@@H](Cc2ccc3ccccc3c2)NC(=O)[C@H](Cc2c[nH]cn2)NC(=O)[C@H](CCC(=O)O)NC1=O` showed an EC50 (hMC1-R) of 70.4 nM, a Kb (hMC3-R) of 286 nM and a Kb (hMC4-R) of 18.6 nM. For the same molecule, the EC50 (hMC5-R) was > 10000 nM.
Molecule `CC(=O)N[C@H]1CSSC[C@@H](C(=O)N2CCC[C@H]2C(=O)N2CCC[C@H]2C(=O)N[C@@H](CCCCN)C(=O)N[C@@H](CC(=O)O)C(=O)NCCC(=O)N[C@@H](CCCNC(=N)N)C(=O)N[C@@H](CCCNC(=N)N)C(=O)N[C@@H](CCCNC(=N)N)C(=O)N[C@@H](CCCNC(=N)N)C(=O)N[C@@H](CCCNC(=N)N)C(=O)N[C@@H](CCC(N)=O)C(=O)N[C@@H](CCCNC(=N)N)C(=O)N[C@@H](CCCNC(=N)N)C(=O)N[C@@H](CCCNC(=N)N)C(N)=O)NC(=O)[C@H](C)NC(=O)[C@H](Cc2cccc3ccccc23)NC(=O)[C@H](CCCNC(=N)N)NC(=O)[C@@H](Cc2ccc3ccccc3c2)NC(=O)[C@H](Cc2c[nH]cn2)NC(=O)[C@H](CCC(=O)O)NC1=O` has an EC50 (hMC1-R) of 36 nM, a Kb (hMC3-R) of 46.5 nM and a Kb (hMC4-R) of 11.4 nM. For the same molecule, the EC50 (hMC5-R) was 56.1 nM.
`CC(=O)N[C@H]1CSSC[C@@H](C(=O)N2CCC[C@H]2C(=O)N2CCC[C@H]2C(=O)N[C@@H](CCCNC(=N)N)C(=O)N[C@@H](CC(=O)O)C(=O)NCCC(=O)N[C@@H](CCCNC(=N)N)C(=O)N[C@@H](CCCNC(=N)N)C(=O)N[C@@H](CCCNC(=N)N)C(=O)N[C@@H](CCCNC(=N)N)C(=O)N[C@@H](CCCNC(=N)N)C(=O)N[C@@H](CCC(N)=O)C(=O)N[C@@H](CCCNC(=N)N)C(=O)N[C@@H](CCCNC(=N)N)C(=O)N[C@@H](CCCNC(=N)N)C(N)=O)NC(=O)[C@H](C)NC(=O)[C@H](Cc2ccc3ccccc3c2)NC(=O)[C@H](CCCNC(=N)N)NC(=O)[C@@H](Cc2ccc3ccccc3c2)NC(=O)[C@H](Cc2c[nH]cn2)NC(=O)[C@H](CCC(=O)O)NC1=O` showed an EC50 (hMC1-R) of 39.7 nM, a Kb (hMC3-R) of 30.9 nM and a Kb (hMC4-R) of 6.66 nM. It also gave an EC50 (hMC5-R) of 501 nM.
Molecule `CC(=O)N[C@H]1CSSC[C@@H](C(=O)N2CCC[C@H]2C(=O)N2CCC[C@H]2C(=O)N[C@@H](CCCCN)C(=O)N[C@@H](CC(=O)O)C(=O)NCCC(=O)N[C@@H](CCCNC(=N)N)C(=O)N[C@@H](CCCNC(=N)N)C(=O)N[C@@H](CCCNC(=N)N)C(=O)N[C@@H](CCCNC(=N)N)C(=O)N[C@@H](CCCNC(=N)N)C(=O)N[C@@H](CCC(N)=O)C(=O)N[C@@H](CCCNC(=N)N)C(=O)N[C@@H](CCCNC(=N)N)C(=O)N[C@@H](CCCNC(=N)N)C(N)=O)NC(=O)[C@H](C)NC(=O)[C@H](Cc2ccc3ccccc3c2)NC(=O)[C@H](CCCNC(=N)N)NC(=O)[C@@H](Cc2ccc3ccccc3c2)NC(=O)[C@H](Cc2c[nH]cn2)NC(=O)[C@H](CCC(=O)O)NC1=O` has an EC50 (hMC1-R) of 35.2 nM, a Kb (hMC3-R) of 22.9 nM and a Kb (hMC4-R) of 12.6 nM. It also gave an EC50 (hMC5-R) of 199 nM.
Work on `CC(=O)N[C@H]1CSSC[C@@H](C(=O)N2CCC[C@H]2C(=O)N2CCC[C@H]2C(=O)N[C@@H](CCCCN)C(=O)N[C@@H](CC(=O)O)C(=O)NCCC(=O)N[C@@H](CCCNC(=N)N)C(=O)N[C@@H](CCCNC(=N)N)C(=O)N[C@@H](CCCCN)C(=O)N[C@@H](CCCNC(=N)N)C(=O)N[C@@H](CCCNC(=N)N)C(=O)N[C@@H](CCC(N)=O)C(=O)N[C@@H](CCCNC(=N)N)C(=O)N[C@@H](CCCNC(=N)N)C(=O)N[C@@H](CCCNC(=N)N)C(N)=O)NC(=O)[C@H](C)NC(=O)[C@H](Cc2ccc3ccccc3c2)NC(=O)[C@H](CCCNC(=N)N)NC(=O)[C@@H](Cc2ccc3ccccc3c2)NC(=O)[C@H](Cc2c[nH]cn2)NC(=O)[C@H](CCC(=O)O)NC1=O` yielded an EC50 (hMC1-R) of 88.2 nM, a Kb (hMC3-R) of 10.6 nM and a Kb (hMC4-R) of 17.4 nM. It also gave an EC50 (hMC5-R) of 514 nM.
`CC(=O)N[C@H]1CSSC[C@@H](C(=O)N2CCC[C@H]2C(=O)N2CCC[C@H]2C(=O)N[C@@H](CCCCN)C(=O)N[C@@H](CC(=O)O)C(=O)NCCC(=O)N[C@@H](Cc2ccc(O)cc2)C(=O)NCC(=O)N[C@@H](CCCNC(=N)N)C(=O)N[C@@H](CCCCN)C(=O)N[C@@H](CCCCN)C(=O)N[C@@H](CCCNC(=N)N)C(=O)N[C@@H](CCCNC(=N)N)C(=O)N[C@@H](CCCNC(=N)N)C(=O)N[C@@H](CCCNC(=N)N)C(=O)N[C@@H](CCCNC(=N)N)C(=O)N[C@@H](CCC(N)=O)C(N)=O)NC(=O)[C@H](C)NC(=O)[C@H](Cc2c[nH]c3ccccc23)NC(=O)[C@H](CCCNC(=N)N)NC(=O)[C@@H](Cc2ccc3ccccc3c2)NC(=O)[C@H](Cc2c[nH]cn2)NC(=O)[C@H](CCC(=O)O)NC1=O` was tested, and the EC50 (hMC1-R) was 7.5 nM, the Kb (hMC3-R) was 12.2 nM and the Kb (hMC4-R) was 7.61 nM. For the same molecule, the EC50 (hMC5-R) was 51.7 nM.
Work on `CC(=O)N[C@H]1CSSC[C@@H](C(=O)N2CCC[C@H]2C(=O)N2CCC[C@H]2C(=O)N[C@@H](CCCCN)C(=O)N[C@@H](CC(=O)O)C(=O)NCCC(=O)N[C@@H](Cc2ccc(O)cc2)C(=O)NCC(=O)N[C@@H](CCCNC(=N)N)C(=O)N[C@@H](CCCCN)C(=O)N[C@@H](CCCCN)C(=O)N[C@@H](CCCNC(=N)N)C(=O)N[C@@H](CCC(N)=O)C(=O)N[C@@H](CCCNC(=N)N)C(=O)N[C@@H](CCCNC(=N)N)C(=O)N[C@@H](CCCNC(=N)N)C(=O)N[C@@H](CCCNC(=N)N)C(N)=O)NC(=O)[C@H](C)NC(=O)[C@H](Cc2c[nH]c3ccccc23)NC(=O)[C@H](CCCNC(=N)N)NC(=O)[C@@H](Cc2ccc3ccccc3c2)NC(=O)[C@H](Cc2c[nH]cn2)NC(=O)[C@H](CCC(=O)O)NC1=O` yielded an EC50 (hMC1-R) of 15.2 nM, a Kb (hMC3-R) of 14.6 nM and a Kb (hMC4-R) of 4.52 nM. It also gave an EC50 (hMC5-R) of 36.8 nM.
